From patent US20230278972A1, “SUBSTITUTED HALOALKYL SULFONANILIDE HERBICIDES” (FMC Corporation, priority 2020, published 2023)

Experiments:
Type in all cases: in vivo
[1] = tested on: blackgrass (Alopecurus myosuroides); test: Test A postemergence, blackgrass; details: Postemergence, 0 to 100 scale (0 no effect, 100 complete control)
Procedure, shortened: (§1)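 Directed soil spray at planting gave the preemergence treatment, while foliar application to one- to two-leaf seedlings (2–10 cm) gave the postemergence one; pots held a loam and sand mixture and chemicals were carried in a non-phytotoxic solvent with surfactant.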

[2] = tested on: pigweed (Amaranthus retroflexus); test: Test A postemergence, pigweed; details: Postemergence, 0 to 100 scale (0 no effect, 100 complete control)
Procedure, shortened: as §1

[3] = tested on: pigweed (Amaranthus retroflexus); test: Test A preemergence, pigweed; details: for Pigweed plant response rating: visual injury on 0 to 100 scale (0 no effect, 100 complete control), approximately 10 days; for Plant response rating, Pigweed: 0 to 100 scale (0 no effect, 100 complete control)
Procedure, shortened: (§2)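 Seeds are sown in loam mixed with sand and sprayed on the soil surface right after planting for the preemergence test. Postemergence pots are sprayed once seedlings reach 2 to 10 cm at the one- to two-leaf stage. The same surfactant-containing, non-phytotoxic solvent formulation serves both.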

[4] = tested on: Foxtail, Giant (giant foxtail, Setaria faberi); test: Test A postemergence, Foxtail, Giant; details: Postemergence, 0 to 100 scale (0 no effect, 100 complete control)
Procedure, shortened: as §1

kochia (Bassia scoparia) [5] = test: Test A preemergence, kochia; details: Preemergence; for Kochia plant response rating: visual injury on 0 to 100 scale (0 no effect, 100 complete control), approximately 10 days; for Plant response rating, Kochia: 0 to 100 scale (0 no effect, 100 complete control)
Procedure, shortened: as §1

[6] = tested on: ragweed (common ragweed, Ambrosia artemisiifolia); test: Test A preemergence, ragweed; details: Preemergence; for Ragweed plant response rating: visual injury on 0 to 100 scale (0 no effect, 100 complete control), approximately 10 days; for Plant response rating, Ragweed: 0 to 100 scale (0 no effect, 100 complete control)
Procedure, shortened: as §1

[7] = tested on: barnyardgrass (Echinochloa crus-galli); test: Test A postemergence, barnyardgrass; details: Postemergence, 0 to 100 scale (0 no effect, 100 complete control)
Procedure, shortened: as §2

kochia (Bassia scoparia) [8] = test: Test A postemergence, kochia; details: Postemergence, 0 to 100 scale (0 no effect, 100 complete control)
Procedure, shortened: as §1

[9] = tested on: Foxtail, Giant (giant foxtail, Setaria faberi); test: Test A preemergence, Foxtail, Giant; details: Preemergence; for Foxtail, Giant plant response rating: visual injury on 0 to 100 scale (0 no effect, 100 complete control), approximately 10 days; for Plant response rating, Foxtail, Giant: 0 to 100 scale (0 no effect, 100 complete control)
Procedure, shortened: as §1

[10] = tested on: Ryegrass, Italian (Italian ryegrass, Lolium multiflorum); test: Test A postemergence, Ryegrass, Italian; details: Postemergence, 0 to 100 scale (0 no effect, 100 complete control)
Procedure, shortened: as §1

corn (Zea mays) = test: Test A postemergence, corn; details: Postemergence, 0 to 100 scale (0 no effect, 100 complete control)
Procedure, shortened: as §1

[11] = tested on: barnyardgrass (Echinochloa crus-galli); test: Test A preemergence, barnyardgrass; details: Preemergence; for Barnyardgrass plant response rating: visual injury on 0 to 100 scale (0 no effect, 100 complete control), approximately 10 days; for Plant response rating, Barnyardgrass: 0 to 100 scale (0 no effect, 100 complete control)
Procedure, shortened: as §1

[12] = tested on: Ryegrass, Italian (Italian ryegrass, Lolium multiflorum); test: Test A preemergence, Ryegrass, Italian; details: Preemergence; for Ryegrass, Italian plant response rating: visual injury on 0 to 100 scale (0 no effect, 100 complete control), approximately 10 days; for Plant response rating, Ryegrass, Italian: 0 to 100 scale (0 no effect, 100 complete control)
Procedure, shortened: as §1

[13] = tested on: wheat (Triticum aestivum); test: Test A postemergence, wheat; details: Postemergence, 0 to 100 scale (0 no effect, 100 complete control)
Procedure, shortened: as §2

[14] = tested on: ragweed (common ragweed, Ambrosia artemisiifolia); test: Test A postemergence, ragweed; details: Postemergence, 0 to 100 scale (0 no effect, 100 complete control)
Procedure, shortened: as §1

[15] = tested on: galium (catchweed bedstraw, Galium aparine); test: Test A postemergence, galium; details: Postemergence, 0 to 100 scale (0 no effect, 100 complete control)
Procedure, shortened: as §2

[16] = 125 g ai/ha, visual injury approx. 10 days
[17] = 500 g ai/ha, visual injury, approx. 10 days
[18] = 500 g ai/ha, visual injury vs untreated controls after approx. 10 days
[19] = 125 g ai/ha, visual injury, approx. 10 days
[20] = 1000 g ai/ha, visual injury, approx. 10 days

SMILES: CCn1cc(-c2cc(NS(=O)(=O)C(F)(F)F)c(C)cc2C)c(=O)n(C)c1=O [Compound 32]
- Plant response rating, Blackgrass [1, 16]: 90
- Plant response rating, Blackgrass [1, 17]: 90
- Plant response rating, Pigweed [2, 16]: 10
- Plant response rating, Pigweed [2, 17]: 20
- Pigweed plant response rating ([3]; 125 g ai/ha): 20
- Plant response rating, Pigweed ([3]; 500 g ai/ha): 60
- Plant response rating, Foxtail, Giant [4, 16]: 90
- Plant response rating, Foxtail, Giant [4, 17]: 90
- Kochia plant response rating (kochia (Bassia scoparia) [5]; 125 g ai/ha): 60
- Plant response rating, Kochia (kochia (Bassia scoparia) [5]; 500 g ai/ha): 90
- Ragweed plant response rating ([6]; 125 g ai/ha): 0
- Plant response rating, Ragweed ([6]; 500 g ai/ha): 50
- Plant response rating, Barnyardgrass [7, 16]: 90
- Plant response rating, Barnyardgrass [7, 17]: 90
- Plant response rating, Kochia (kochia (Bassia scoparia) [8]; [16]): 20
- Plant response rating, Kochia (kochia (Bassia scoparia) [8]; [17]): 40
- Foxtail, Giant plant response rating ([9]; 125 g ai/ha): 100
- Plant response rating, Foxtail, Giant ([9]; 500 g ai/ha): 100
- Plant response rating, Ryegrass, Italian [10, 16]: 80
- Plant response rating, Ryegrass, Italian [10, 17]: 90
- Plant response rating, Corn (corn (Zea mays); [16]): 10
- Plant response rating, Corn (corn (Zea mays); [17]): 80
- Barnyardgrass plant response rating ([11]; 125 g ai/ha): 100
- Plant response rating, Barnyardgrass ([11]; 500 g ai/ha): 100
- Ryegrass, Italian plant response rating ([12]; 125 g ai/ha): 100
- Plant response rating, Ryegrass, Italian ([12]; 500 g ai/ha): 100
- Plant response rating, Wheat [13, 16]: 70
- Plant response rating, Wheat [13, 17]: 70
- Plant response rating, Ragweed [14, 16]: 30
- Plant response rating, Ragweed [14, 17]: 60
- Plant response rating, Galium [15, 16]: 70
- Plant response rating, Galium [15, 17]: 90

SMILES: Cc1cc(Cl)c(N(S(=O)(=O)C(F)(F)F)S(=O)(=O)C(F)(F)F)cc1-c1cn(C)c(=O)n(C)c1=O [Compound 38]
- Plant response rating, Blackgrass [1, 16]: 80
- Plant response rating, Blackgrass [1, 17]: 90
- Plant response rating, Pigweed [2, 16]: 70
- Plant response rating, Pigweed [2, 17]: 90
- Pigweed plant response rating ([3]; 125 g ai/ha): 40
- Plant response rating, Pigweed ([3]; 500 g ai/ha): 80
- Plant response rating, Foxtail, Giant [4, 16]: 90
- Plant response rating, Foxtail, Giant [4, 17]: 90
- Kochia plant response rating (kochia (Bassia scoparia) [5]; 125 g ai/ha): 80
- Plant response rating, Kochia (kochia (Bassia scoparia) [5]; 500 g ai/ha): 90
- Ragweed plant response rating ([6]; 125 g ai/ha): 70
- Plant response rating, Ragweed ([6]; 500 g ai/ha): 90
- Plant response rating, Barnyardgrass [7, 16]: 60
- Plant response rating, Barnyardgrass [7, 17]: 80
- Plant response rating, Kochia (kochia (Bassia scoparia) [8]; [16]): 60
- Plant response rating, Kochia (kochia (Bassia scoparia) [8]; [17]): 70
- Foxtail, Giant plant response rating ([9]; 125 g ai/ha): 100
- Plant response rating, Foxtail, Giant ([9]; 500 g ai/ha): 100
- Plant response rating, Ryegrass, Italian [10, 16]: 60
- Plant response rating, Ryegrass, Italian [10, 17]: 80
- Plant response rating, Corn (corn (Zea mays); [16]): 20
- Plant response rating, Corn (corn (Zea mays); [17]): 70
- Barnyardgrass plant response rating ([11]; 125 g ai/ha): 90
- Plant response rating, Barnyardgrass ([11]; 500 g ai/ha): 100
- Ryegrass, Italian plant response rating ([12]; 125 g ai/ha): 100
- Plant response rating, Ryegrass, Italian ([12]; 500 g ai/ha): 100
- Plant response rating, Wheat [13, 16]: 70
- Plant response rating, Wheat [13, 17]: 70
- Plant response rating, Ragweed [14, 16]: 80
- Plant response rating, Ragweed [14, 17]: 90
- Plant response rating, Galium [15, 16]: 80
- Plant response rating, Galium [15, 17]: 90

SMILES: CSC(=O)N(c1cc(C2=NOC3(CCCC3)C2)c(C)cc1C)S(=O)(=O)C(F)(F)F [Compound 219]
- Plant response rating, Blackgrass ([1]; 125 g ai/ha): 0
- Blackgrass plant response rating [1, 18]: 0
- Plant response rating, Pigweed ([2]; 125 g ai/ha): 40
- Pigweed plant response rating [2, 18]: 70
- Plant response rating, Pigweed [3, 19]: 40
- Plant response rating, Pigweed ([3]; 500 g ai/ha): 60
- Plant response rating, Foxtail, Giant ([4]; 125 g ai/ha): 0
- Foxtail, Giant plant response rating [4, 18]: 20
- Plant response rating, Kochia (kochia (Bassia scoparia) [5]; [19]): 20
- Plant response rating, Kochia (kochia (Bassia scoparia) [5]; 500 g ai/ha): 40
- Plant response rating, Ragweed [6, 19]: 0
- Plant response rating, Ragweed ([6]; 500 g ai/ha): 0
- Plant response rating, Barnyardgrass ([7]; 125 g ai/ha): 0
- Barnyardgrass plant response rating [7, 18]: 70
- Plant response rating, Kochia (kochia (Bassia scoparia) [8]; 125 g ai/ha): 30
- Kochia plant response rating (kochia (Bassia scoparia) [8]; [18]): 60
- Plant response rating, Foxtail, Giant [9, 19]: 50
- Plant response rating, Foxtail, Giant ([9]; 500 g ai/ha): 90
- Plant response rating, Ryegrass, Italian ([10]; 125 g ai/ha): 20
- Ryegrass, Italian plant response rating [10, 18]: 50
- Plant response rating, Corn (corn (Zea mays); 125 g ai/ha): 0
- Corn plant response rating (corn (Zea mays); [18]): 0
- Plant response rating, Barnyardgrass [11, 19]: 0
- Plant response rating, Barnyardgrass ([11]; 500 g ai/ha): 100
- Plant response rating, Ryegrass, Italian [12, 19]: 50
- Plant response rating, Ryegrass, Italian ([12]; 500 g ai/ha): 60
- Plant response rating, Wheat ([13]; 125 g ai/ha): 0
- Wheat plant response rating [13, 18]: 0
- Plant response rating, Ragweed ([14]; 125 g ai/ha): 20
- Ragweed plant response rating [14, 18]: 50
- Plant response rating, Galium ([15]; 125 g ai/ha): 50
- Galium plant response rating [15, 18]: 70

SMILES: Cc1cc(C)c(C(=O)N2CCC(C)CC2)cc1NS(=O)(=O)C(F)(F)F [Compound 264]
- Plant response rating, Blackgrass [1, 20]: 60
- Plant response rating, Pigweed [2, 20]: 60
- Plant response rating, Pigweed ([3]; 1000 g ai/ha): 80
- Plant response rating, Foxtail, Giant [4, 20]: 40
- Plant response rating, Kochia (kochia (Bassia scoparia) [5]; 1000 g ai/ha): 70
- Plant response rating, Ragweed ([6]; 1000 g ai/ha): 90
- Plant response rating, Barnyardgrass [7, 20]: 50
- Plant response rating, Kochia (kochia (Bassia scoparia) [8]; [20]): 20
- Plant response rating, Foxtail, Giant ([9]; 1000 g ai/ha): 100
- Plant response rating, Ryegrass, Italian [10, 20]: 50
- Plant response rating, Corn (corn (Zea mays); [20]): 20
- Plant response rating, Barnyardgrass ([11]; 1000 g ai/ha): 100
- Plant response rating, Ryegrass, Italian ([12]; 1000 g ai/ha): 100
- Plant response rating, Wheat [13, 20]: 70
- Plant response rating, Ragweed [14, 20]: 60
- Plant response rating, Galium [15, 20]: 70
